Data reported in patent US6403606B1, “Thienopyridine derivatives and their use” (Takeda Chemical Industries Ltd., priority 1996, dated 2002).
Marks after values point to notes of the source that are not given here.

Tested on: not given
Experiment: not given
Conditions: not given

Row | SMILES | melting point [°C]
1 | CCOC(=O)c1c(CCCCn2cncn2)nc2sc3cnccc3c2c1-c1ccc(OC)c(OC)c1 [Example 30A, ethyl 4-(3,4-dimethoxyphenyl)-2-[4-(1,2,4-triazol-1-yl)butyl]thieno[2,3-b:5,4-c′]dipyridine-3-carboxylate] | 118 to 119
2 | CCOC(=O)c1c2c(cn1CN(CC)CC)C1=C(NC(C(C)=O)CC1)[SH]2c1ccc(OC)c(OC)c1 (stereo not shown) [Example 32A, ethyl 2-acetyl-8-(3,4-dimethoxyphenyl)-6-diethylaminomethyl-2,3-dihydro-1H-pyrrolo[3′,4′:4,5]thieno[2,3-b]pyridine-7-carboxylate] | 123 to 124
3 | COc1ccc(-c2c(Cl)c(CN3CCCC3=O)nc3sc4cnccc4c23)cc1OC [Example 36B, 3-chloro-4-(3,4-dimethoxyphenyl)-2-(2-oxopyrrolidin-1-ylmethyl)thieno[2,3-b:5,4-c′]dipyridine] | 228 to 230
4 | CCOC(=O)c1c(CN(CC)CC)nc2sc3c(c2c1-c1ccc(CC)cc1)CCN(OC(=O)CC)C3 [Example 39A] | 97 to 99
5 | CCOC(=O)c1c(CN(CC)CC)nc2sc3cnccc3c2c1-c1ccc(O)c(OC)c1 [Example 51A, ethyl 2-diethylaminomethyl-4-(4-hydroxy-3-methoxyphenyl)thieno[2,3-b:5,4-c′]dipyridine-3-carboxylate] | 179 to 181
6 | CCOC(=O)c1c(CN(CC)CC)nc2sc3ccncc3c2c1-c1ccc(OC)c(OC)c1 [Example 55A, ethyl 2-diethylaminomethyl-4-(3,4-dimethoxyphenyl)thieno[2,3-b:4,5-c′]dipyridine-3-carboxylate] | 141 to 142
7 | CCOC(=O)c1c(CN(CC)CC)nc2sc3ncccc3c2c1-c1ccc(OC)c(OC)c1 [Example 64A, ethyl 2-diethylaminomethyl-4-(3,4-dimethoxyphenyl)thieno[2,3-b:5,4-b′]dipyridine-3-carboxylate] | 156 to 157

Further lines, results first:

Row | melting point [°C] | SMILES
8 | 157 to 158 | COc1ccc(-c2c(Cl)c(COC3=NN(c4ccccc4)CC3)nc3sc4c(c23)CCN(Cc2ccccc2)C4)cc1OC [Example 32B, 7-benzyl-3-chloro-4-(3,4-dimethoxyphenyl)-2-(1-phenyl-2-pyrazolin-3-yloxymethyl)-5,6,7,8-tetrahydrothieno[2,3-b:5,4-c′]dipyridine]
9 | 112 to 114 | CCOC(=O)c1c(CN(CC)CC)nc2sc3c(c2c1-c1ccc(CC)cc1)CCN(C(=O)Nc1ccccc1)C3 [Example 36A]
10 | 140 to 141 | CCOC(=O)c1c(CN(CC)CC)nc2sc3c(c2c1-c1ccc(CC)cc1)CCN(S(=O)(=O)c1ccccc1)C3 [Example 42A]
11 | 172 to 174 | CCOC(=O)c1c(Cn2cncn2)nc2sc3cnccc3c2c1-c1ccc(OC)c(OC)c1 [Example 47A, ethyl 4-(3,4-dimethoxyphenyl)-2-(1,2,4-triazol-1-ylmethyl)thieno[2,3-b:5,4-c′]dipyridine-3-carboxylate]
12 | 185 to 187 | CCOC(=O)c1c(CN2C(=O)CN(C)C2=O)nc2sc3c(c2c1-c1ccc(OC)c(OC)c1)CCN(C(=O)c1ccccc1)C3 [Example 52A, ethyl 7-benzoyl-4-(3,4-dimethoxyphenyl)-2-(1-methylhydantoin-3-ylmethyl)-5,6,7,8-tetrahydrothieno[2,3-b:5,4-c′]dipyridine-3-carboxylate]
13 | 91 to 92 | CCOC(=O)c1c(CN(CC)CC)nc2sc3c(c2c1-c1ccc(OC)c(OC)c1)CN(C(=O)c1ccc(Cl)cc1)CC3 [Example 53A, ethyl 6-(4-chlorobenzoyl)-2-diethylaminomethyl-4-(3,4-dimethoxyphenyl)-5,6,7,8-tetrahydrothieno[2,3-b:4,5-c′]dipyridine-3-carboxylate]
14 | 184 to 185 | CCOC(=O)c1c(Cn2cncn2)nc2sc3c(c2c1-c1ccc(OC)c(OC)c1)CCCN3C(=O)OCc1ccccc1 [Example 56A, ethyl 8-benzyloxycarbonyl-4-(3,4-dimethoxyphenyl)-5,6,7,8-tetrahydro-2-(1,2,4-triazol-1-ylmethyl)thieno[2,3-b:5,4-b′]dipyridine-3-carboxylate]
15 | 138 to 139 | CCOC(=O)c1c(CN(CC)CC)nc2sc3c(c2c1-c1ccc(OC)c(OC)c1)CCCN3C(=O)OCc1ccccc1 [Example 58A, ethyl 8-benzyloxycarbonyl-2-diethylaminomethyl-4-(3,4-dimethoxyphenyl)-5,6,7,8-tetrahydrothieno[2,3-b:5,4-b′]dipyridine-3-carboxylate]
16 | 169 to 170 | CCOC(=O)c1c(Cn2cncn2)nc2sc3c(c2c1-c1ccc(OC)c(OC)c1)CN(C(=O)OCc1ccccc1)CC3 [Example 59A, ethyl 6-benzyloxycarbonyl-4-(3,4-dimethoxyphenyl)-5,6,7,8-tetrahydro-2-(1,2,4-triazol-1-ylmethyl)thieno[2,3-b:4,5-c′]dipyridine-3-carboxylate]
17 | 180 to 181 | CCOC(=O)c1c(Cn2cncn2)nc2sc3c(c2c1-c1ccc(OC)c(OC)c1)CNCC3 [Example 63A, ethyl 4-(3,4-dimethoxyphenyl)-5,6,7,8-tetrahydro-2-(1,2,4-triazol-1-ylmethyl)thieno[2,3-b:4,5-c′]dipyridine-3-carboxylate]
18 | 180 to 182 | CCOC(=O)c1c(Cn2cncn2)nc2sc3ncccc3c2c1-c1ccc(OC)c(OC)c1 [Example 65A, ethyl 4-(3,4-dimethoxyphenyl)-2-(1,2,4-triazol-1-ylmethyl)thieno[2,3-b:5,4-b′]dipyridine-3-carboxylate]
19 | 166 to 167 | CCOC(=O)c1c(Cn2cncn2)nc2sc3ccncc3c2c1-c1ccc(OC)c(OC)c1 [Example 66A, ethyl 4-(3,4-dimethoxyphenyl)-2-(1,2,4-triazol-1-ylmethyl)thieno[2,3-b:4,5-c′]dipyridine-3-carboxylate]

Tested on: Rat Adjuvant Arthritis
Experiment: Activity on rat adjuvant arthritis (Test Example 1A)
Type: in vivo, Male Lewis rats
Conditions: 6.25 mg/kg once daily for 14 days; day 14; relative to non-sensitized rats; N=6
Description: Male Lewis rats (7 weeks old, Clea Japan) were sensitized by intracutaneous injection of 0.05 ml of Freund's complete adjuvant (0.5% dead tubercle bacillus cell suspension in liquid paraffin) at the right hind paw. The test drug (6.25 mg/kg), in a suspension in 0.5% methyl cellulose, was administered once daily for 14 days starting just before sensitization (day 0). At the days 0 and 14, the left hind paw volume and body weight of the animals were measured using a plethysmometer (manufactured by Ugo Basile Company, Italy) and an electronic balance (EB-3200D, manufactured by Shimadzu Corporation, Japan), respectively, and paw swelling suppression rate (%) and body weight gain rate (%), relative to non-sensitized rats, were determined.
The results, expressed in mean±S.E. for each group (N=6), were compared and statistically analyzed by Dunnet method. Level of significance was set below 5%.

Row | SMILES | Body weight gain rate (%)
20 | CCOC(=O)c1c(CN(CC)CC)nc2sc3c(c2c1-c1ccc(OC)c(OC)c1)CCN(C(=O)c1ccccc1)C3 [Example 1A, ethyl 7-benzoyl-2-(N,N-diethylaminomethyl)-4-(3,4-dimethoxyphenyl)-5,6,7,8-tetrahydrothieno[2,3-b:5,4-c′]dipyridine-3-carboxylate] | 15%
21 | CCOC(=O)c1c(CN(CC)CC)nc2sc3cnccc3c2c1-c1ccc(OC)c(OC)c1 [Example 7A, ethyl 2-(N,N-diethylaminomethyl)-4-(3,4-dimethoxyphenyl)thieno[2,3-b:5,4-c′]dipyridine-3-carboxylate] | 26** %
22 | CCOC(=O)c1c(CN(CC)CC)nc2sc3c(c2c1-c1ccc(OC)c(OC)c1)CCN(C(C)=O)C3 [Example 15A, ethyl 7-acetyl-2-(N,N-diethylaminomethyl)-4-(3,4-dimethoxyphenyl)-5,6,7,8-tetrahydrothieno[2,3-b:5,4-c′]dipyridine-3-carboxylate] | 9%

Same assay, conditions: 6.25 mg/kg once daily for 14 days; left hind paw volume day 14; relative to non-sensitized rats; N=6

Row | SMILES | Edema inhibitory rate (%)
23 | CCOC(=O)c1c(CN(CC)CC)nc2sc3c(c2c1-c1ccc(OC)c(OC)c1)CCN(C(=O)c1ccccc1)C3 [Example 1A, ethyl 7-benzoyl-2-(N,N-diethylaminomethyl)-4-(3,4-dimethoxyphenyl)-5,6,7,8-tetrahydrothieno[2,3-b:5,4-c′]dipyridine-3-carboxylate] | 49%
24 | CCOC(=O)c1c(CN(CC)CC)nc2sc3cnccc3c2c1-c1ccc(OC)c(OC)c1 [Example 7A, ethyl 2-(N,N-diethylaminomethyl)-4-(3,4-dimethoxyphenyl)thieno[2,3-b:5,4-c′]dipyridine-3-carboxylate] | 84** %
25 | CCOC(=O)c1c(CN(CC)CC)nc2sc3c(c2c1-c1ccc(OC)c(OC)c1)CCN(C(C)=O)C3 [Example 15A, ethyl 7-acetyl-2-(N,N-diethylaminomethyl)-4-(3,4-dimethoxyphenyl)-5,6,7,8-tetrahydrothieno[2,3-b:5,4-c′]dipyridine-3-carboxylate] | 60** %
